Test results as given in US8163509B2, “Biological markers predictive of anti-cancer response to insulin-like growth factor-1 receptor kinase inhibitors” (The Regents of the University of Colorado, A Body Corporate, priority 2008, dated 2012).
Like-named read-outs stand apart in the source and are kept apart here.

Tests used:
Test in all cases: SRB proliferation assay, 72 h
Format in all cases: cell-based, human
SW620 CRC cell line = settings: for IC50: Homo sapiens
Description: (§1) FIG. 17: Results of cell proliferation assay on the panel of 27 CRC cell lines. Cell proliferation was evaluated by SRB following exposure to OSI-906 for 72 hours. Cells were plated at an optimized density in 96-well plates, incubated overnight at 37° C., and then exposed to a serial dilution of OSI-906. After 72 hours incubation, cells were fixed with trichloroacetic acid and an SRB was performed as described in materials and methods.
(§2) Cell Lines and Culture. […] human colon cancer cell lines, were obtained from American Type Culture Collection (Manassas, Va.). Cells were grown in RPMI medium supplemented with 10% fetal bovine serum, 1% non-essential amino acids, 1% penicillin/streptomycin and were maintained at 37° C. in an incubator under an atmosphere containing 5% CO2. The cells were routinely screened for the presence of mycoplasma (MycoAlert, Cambrex Bio Science, Baltimore, Md.) and were exposed to PQIP when they reached approximately 70% confluence.
(§3) The CRC cell lines were treated with a range of concentrations of PQIP (from 0.05-5 μM) for 72 hours.
(§4) Cell Lines and Culture: Twenty-seven human colon cancer cell lines, were obtained from American Type Culture Collection (Manassas, Va.). The GEO cells were a generous gift from Dr. Fortunato Ciardiello (Cattedra di Oncologia Medica, Dipartimento Medico-Chirurgico di Internistica Clinica e Sperimentale “F Magrassi e A Lanzara,” Seconda Università degli Studi di Napoli, Naples). All cells except GEO were grown in RPMI medium supplemented with 10% fetal bovine serum, 1% non-essential amino acids, 1% penicillin/streptomycin and were maintained at 37° C. in an incubator under an atmosphere containing 5% CO2. GEO cells were grown in DMEM/F12 supplemented with 10% fetal bovine serum, 1% non-essential amino acids, 1% penicillin/streptomycin. The cells were routinely screened for the presence of mycoplasma (MycoAlert, Cambrex Bio Science, Baltimore, Md.) and were exposed to OSI-906 when they reached approximately 70% confluence. OSI-906 was provided by OSI Pharmaceuticals, (Boulder, Colo.) and prepared as a 10 mM stock solution in DMSO.
(§5) Assessment of responsiveness of a panel of CRC cell lines to OSI-906. In order to assess CRC cell lines with differential sensitivity to OSI-906, a panel of 27 CRC cell lines were exposed to increasing concentrations of OSI-906 and proliferation was measured using the SRB assay as described previously (Pitts, T M, et al. Mol Cancer Ther 2009; 8(2):342-9). As depicted in FIG. 17 there was a wide range of sensitivity of the CRC cell lines to OSI-906, the majority of the cell lines failing to reach an IC50 up to 5 μmol/L, but a clear distinction could be made between the cell lines that were sensitive and the cell lines that were resistant.

Colo201 CRC cell line = settings: for IC50: Homo sapiens, COLO 201
Description: as §1, §2, §3, §4, §5

SK-CO-1 CRC cell line = settings: for IC50: Homo sapiens
Description: as §1, §2, §3, §4, §5

LS513 CRC cell line = system: LS513 CRC cell line
Description: as §1, §2
(§6) Cytotoxicity and Combination Effects: HT29, HCT116, RKO, and LS513 CRC cell lines were exposed to 0-10 nM SN-38 (7-Ethyl-10-hydroxy-camptothecin), 0-10 μM Oxaliplatin, or 0-50 μM 5-Fluorouracil (5-FU) for 72 hours. HT29, HCT116, RKO, and LS513 CRC cell lines were exposed to PQIP in combination with SN-38, Oxaliplatin or 5-FU. In all combinations, cells were seeded in 96-well flat bottomed plates and left overnight. PQIP and chemotherapy were both added for 72 hours. The results of the combinations were analyzed by the Chou and Talalay method with Calcusyn (Biosoft, Ferguson, Mo.).
as §3
(§7) Combination treatment of PQIP with Chemotherapy in Colon Cancer Cell Lines: IGF1R is overexpressed in CRC and has been associated with resistance to chemotherapy. Therefore, we investigated the effect of PQIP in combination with standard chemotherapy for CRC. Four CRC cell lines including, two PQIP sensitive and two PQIP resistant, were chosen for combinations. HT29 and LS513 CRC cell lines were classified as sensitive, with IC50's around 0.3 μmol/L. HCT116 and RKO CRC cell lines were classified as resistant, with IC50>5 μmol/L. Concentrations were chosen based on single agent proliferation curves for each compound. Cells were exposed to PQIP and chemotherapy (SN38, oxaliplatin, or 5-Fluorouracil) concurrently for 72 h and combinations were assessed using the SRB assay. […] It thus appears that biomarkers which predict tumor cell sensitivity will also indicate which cells will respond in a synergistic manner to an IGF-1R kinase inhibitor (e.g. PQIP) and chemotherapy (i.e. SN38, oxaliplatin, or 5-Fluorouracil).
Cell Lines and Culture: Twenty-seven human colon cancer cell lines, were obtained from American Type Culture Collection (Manassas, Va.). The GEO cells were a generous gift from Dr. Fortunato Ciardiello (Cattedra di Oncologia Medica, Dipartimento Medico-Chirurgico di Internistica Clinica e Sperimentale “F Magrassi e A Lanzara,” Seconda Università degli Studi di Napoli, Naples). All cells except GEO were grown in RPMI medium supplemented with 10% fetal bovine serum, 1% non-essential amino acids, 1% penicillin/streptomycin and were maintained at 37° C. in an incubator under an atmosphere containing 5% CO2. GEO cells were grown in DMEM/F12 supplemented with 10% fetal bovine serum, 1% non-essential amino acids, 1% penicillin/streptomycin. […]

RKO CRC cell line = settings: for IC50: Homo sapiens
Description: as §1, §2, §6, §3
as §7, with “5-Fluorouracil). […]” for “5-Fluorouracil).”

[1] = 72 hours, read-out: IC50, proliferation, OSI-906 (SRB)

Compound | IC50 (SW620 CRC cell line; SW-620, 72 hours, read-out: IC50, proliferation, OSI-906 (SRB)) [µM] | IC50 (SW620 CRC cell line; SW-620, read-out: S/I/R to OSI-906) [µM] | IC50 (Colo201 CRC cell line; CoLo201, read-out: S/I/R to OSI-906) [µM] | IC50 (Colo201 CRC cell line; Colo201, 72 hours, read-out: IC50, proliferation, OSI-906 (SRB)) [µM] | IC50 (SK-CO-1 CRC cell line; [1]) [µM] | IC50 (SK-CO-1 CRC cell line; read-out: S/I/R to OSI-906) [µM] | IC50 (LS513 CRC cell line; Homo sapiens, LS-513, 72 h, LS513, 72 hours, read-out: IC50, proliferation, OSI-906 (SRB)) [µM] | IC50 (LS513 CRC cell line; Homo sapiens, LS-513, LS513, read-out: S/I/R to OSI-906) [µM] | IC50 (RKO CRC cell line; [1]) [µM] | IC50 (RKO CRC cell line; read-out: S/I/R to OSI-906) [µM] | sensitivity to growth inhibition by PQIP (SRB) (SW620 CRC cell line; 72 hours, 0.05-5 μM) | sensitivity to growth inhibition by PQIP (SRB) (Colo201 CRC cell line; Colo201, 72 hours, 0.05-5 μM) | sensitivity to growth inhibition by PQIP (SRB) (SK-CO-1 CRC cell line; 72 hours, 0.05-5 μM) | IC50 (LS513 CRC cell line; Homo sapiens, LS-513, 72 h, LS513, 72 hours, 0.05-5 μM, read-out: IC50, growth inhibition by PQIP (SRB)) [µM] | IC50 (LS513 CRC cell line; LS513, 72 hours, 0.05-5 μM, read-out: IC50, growth inhibition by PQIP (SRB)) [µM] | combination index (CI) values, PQIP and chemotherapy (LS513 CRC cell line; LS513, PQIP with SN38, oxaliplatin or 5-Fluorouracil concurrently 72 h, nearly all CI values, Chou and Talalay) | IC50 (RKO CRC cell line; 72 hours, 0.05-5 μM, read-out: IC50, growth inhibition by PQIP (SRB)) [µM] | combination index (CI) values, PQIP and chemotherapy (RKO CRC cell line; PQIP with SN38, oxaliplatin or 5-Fluorouracil concurrently 72 h, nearly all combinations, Chou and Talalay)
C[C@]1(O)C[C@@H](c2nc(-c3ccc4ccc(-c5ccccc5)nc4c3)c3c(N)nccn32)C1 [OSI-906, cis-3-[8-amino-1-(2-phenyl-quinolin-7-yl)-imidazo[1,5-a]pyrazin-3-yl]-1-methyl-cyclobutanol] | > 5 | > 5 | > 5 | > 5 | > 5 | > 5 | ≤ 1.5 | ≤ 1.5 | > 5 | > 5 |  |  |  |  |  |  |  | 
CN1CCN([C@H]2C[C@@H](c3nc(-c4ccc5ccc(-c6ccccc6)nc5c4)c4c(N)nccn43)C2)CC1 [PQIP, cis-3-[3-(4-Methyl-piperazin-1-yl)-cyclobutyl]1-(2-phenyl-quinolin-7-yl)-imidazo[1,5-a]pyrazin-8-ylamine] |  |  |  |  |  |  |  |  |  |  | intermediate sensitivity | intermediate sensitivity | intermediate sensitivity | < 0.5 | ~0.3 | 0.2-1.0 | > 5 | 0.6-1.4
